In patent US20240148821A1, “PHARMACEUTICAL USE OF CYCLIC PEPTIDE COMPOUND” (CHUGAI SEIYAKU KABUSHIKI KAISHA, priority 2021, published 2024):
Numbered stars: 1 amine (or outer) side, 2 acyl side, 3 side chain; on linkers, the order of the positions; unused ones are H or OH. Bridge positions count the residues as written; N and C are the ends. Square brackets hold non-standard residues; d marks the D form. Peptide text beside a SMILES is read from it. * marks the point of attachment. hPhe(3,5-F2-4-CF3) = N[C@@H](CCc1cc(F)c(C(F)(F)F)c(F)c1)C(=O)O; hPhe(3-Cl-4-CF3) = N[C@@H](CCc1ccc(C(F)(F)F)c(Cl)c1)C(=O)O; hPhe(3-F,4-CF3) = N[C@@H](CCc1ccc(C(F)(F)F)c(F)c1)C(=O)O; NEtPhe(4-CF3) = CCN[C@@H](Cc1ccc(C(F)(F)F)cc1)C(=O)O; NMePhe(4-CF3) = CN[C@@H](Cc1ccc(C(F)(F)F)cc1)C(=O)O; NMePhe(4-Me) = CN[C@@H](Cc1ccc(C)cc1)C(=O)O; NMedβ3hAla = C[C@H](CC(=O)[*:2])N(C)[*:1]; NMeAla(cPent) = CN[C@@H](CC1CCCC1)C(=O)O; NMeGly(cPent) = CN[C@H](C(=O)O)C1CCCC1; NMeCha = CN[C@@H](CC1CCCCC1)C(=O)O; Hyp = O=C(O)[C@@H]1C[C@@H](O)CN1; NMeI = CC[C@H](C)[C@H](NC)C(=O)O; NMeD = CN[C@@H](CC(=O)O)C(=O)O; NMeL = CN[C@@H](CC(C)C)C(=O)O; NMeS = CN[C@@H](CO)C(=O)O; Morpholide = C1CN(*)CCO1; NMeA = CN[C@@H](C)C(=O)O; Piperidide = C1CCN(*)CC1; Ac5c = NC1(C(=O)O)CCCC1; Aze = O=C(O)[C@@H]1CCN1; Sar = CNCC(=O)O; Propyl = CCC*

Columns and labels:
[1] = tested on: Human pancreatic cancer cell line AsPC-1 (G12D mutation Kras); assay: AsPC-1 cell growth inhibition (AsPC-1 CGI); format: cell-based; settings: read-out: AsPC-1 cell growth inhibition, 50% growth inhibitory concentration (IC50 value); 96 hours, CellTiter-Glo, values classified in ranges
Protocol: Test compounds were serially dilated with dimethyl sulfoxide, and 200 nL was then dispensed to a U-bottom 96-well plate using Labcyte Echo. […] The cell suspension was dispensed to a. plate containing a test compound at 100 μL per well and incubated at 37° C. in a 5% carbon dioxide gas incubator. 96 hours later, 80 μL of CellTiter-Glo (Promega) was added to each well and fluorescence was measured.

[2] = molecular target: protein-protein interaction between Kras and SOS1 (biotin-tagged human Kras loaded with GDP, His-tagged human SOS1) (Homo sapiens (Human), UniProt P01116, G12D); assay: Protein-protein interaction inhibition between Kras and SOS1 (KrasG12D-SOS PPI) using AlphaScreen; format: biochemical; settings: AlphaScreen; biotin-tagged human Kras loaded with GDP, His-tagged human SOS1; read-out: KRAS G12D-SOS PPI IC50;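 also: kras produced in E. coli, Ni-coupled donor beads and streptavidin acceptor beads, excitation 680 nm with emission detected at 520–620 nm via singlet oxygen transfer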

SMILES | IC50 [1] [nM] | IC50 [2] [nM]
CC[C@H](C)[C@@H]1NC(=O)[C@H](CC(C)C)N(C)C(=O)C[C@@H](C(=O)N2CCCCC2)N(C)C(=O)[C@H](C2CCCC2)N(C)C(=O)C2(CCCC2)NC(=O)[C@@H]2CCCN2C(=O)[C@H](CCc2ccc(C(F)(F)F)c(Cl)c2)NC(=O)CN(C)C(=O)[C@H](Cc2ccc(C(F)(F)F)cc2)N(C)C(=O)[C@@H]2CCN2C(=O)[C@H](C)N(C)C1=O [Compound 370] ([NMeL]I[NMeA][Aze][NMePhe(4-CF3)][Sar][hPhe(3-Cl-4-CF3)]P[Ac5c][NMeGly(cPent)][NMeD]-Piperidide; lactam N-11) | ≤ 20 | 0.35
CC[C@H](C)[C@@H]1NC(=O)[C@H](CC(C)C)N(C)C(=O)C[C@@H](C)N(C)C(=O)[C@H](C2CCCC2)N(C)C(=O)C2(CCCC2)NC(=O)[C@@H]2CCCN2C(=O)[C@H](CCc2cc(F)c(C(F)(F)F)c(F)c2)NC(=O)CN(C)C(=O)[C@H](Cc2ccc(C(F)(F)F)cc2)N(C)C(=O)[C@@H]2CCN2C(=O)[C@H](C)N(C)C1=O [Compound 371] (cyclo([Ac5c][NMeGly(cPent)][NMedβ3hAla][NMeL]I[NMeA][Aze][NMePhe(4-CF3)][Sar][hPhe(3,5-F2-4-CF3)]P)) | ≤ 20 | 1.3
CCO[C@@H]1C[C@H]2C(=O)NC3(CCCC3)C(=O)N(C)[C@@H]([C@@H](C)CC)C(=O)N(C)[C@H](C)CC(=O)N(C)[C@@H](CC(C)C)C(=O)N[C@@H]([C@@H](C)CC)C(=O)N(C)[C@@H](C)C(=O)N3CC[C@H]3C(=O)N(CC)[C@@H](Cc3ccc(C(F)(F)F)cc3)C(=O)N(C)CC(=O)N[C@@H](CCc3cc(F)c(C(F)(F)F)c(F)c3)C(=O)N2C1 [Compound 374] (cyclo([Ac5c][NMeI][NMedβ3hAla][NMeL]I[NMeA][Aze][NEtPhe(4-CF3)][Sar][hPhe(3,5-F2-4-CF3)][Hyp](Et))) | ≤ 20 | 6.5
CC[C@H](C)[C@@H]1NC(=O)[C@H](CC(C)C)N(C)C(=O)C[C@@H](C(=O)N2CCOCC2)N(C)C(=O)[C@H]([C@@H](C)CC)N(C)C(=O)C2(CCCC2)NC(=O)[C@@H]2CCCN2C(=O)[C@H](CCc2ccc(C(F)(F)F)c(Cl)c2)NC(=O)CN(C)C(=O)[C@H](C2CCCC2)N(C)C(=O)[C@@H]2CCN2C(=O)[C@H](C)N(C)C1=O [Compound 381] ([NMeL]I[NMeA][Aze][NMeGly(cPent)][Sar][hPhe(3-Cl-4-CF3)]P[Ac5c][NMeI][NMeD]-Morpholide; lactam N-11) | ≤ 20 | 1.6
CC[C@H](C)[C@@H]1NC(=O)[C@H](CC(C)C)N(C)C(=O)C[C@@H](C(=O)N2CCOCC2)N(C)C(=O)[C@H](C2CCCC2)N(C)C(=O)C2(CCCC2)NC(=O)[C@@H]2CCCN2C(=O)[C@H](CCc2ccc(C(F)(F)F)c(F)c2)NC(=O)CN(C)C(=O)[C@H](CC2CCCCC2)N(C)C(=O)[C@@H]2CCN2C(=O)[C@H](C)N(C)C1=O [Compound 390] ([NMeL]I[NMeA][Aze][NMeCha][Sar][hPhe(3-F,4-CF3)]P[Ac5c][NMeGly(cPent)][NMeD]-Morpholide; lactam N-11) | ≤ 20 | 0.77
CC[C@H](C)[C@@H]1NC(=O)[C@H](CC2CCCC2)N(C)C(=O)C[C@@H](C(=O)N(C)C)N(C)C(=O)[C@H]([C@@H](C)CC)N(C)C(=O)C2(CCCC2)NC(=O)[C@@H]2CCCN2C(=O)[C@H](CCc2ccc(C(F)(F)F)c(Cl)c2)NC(=O)CN(C)C(=O)[C@H](Cc2ccc(C)cc2)N(C)C(=O)[C@@H]2CCN2C(=O)[C@H](C)N(C)C1=O [Compound 400] ([NMeAla(cPent)]I[NMeA][Aze][NMePhe(4-Me)][Sar][hPhe(3-Cl-4-CF3)]P[Ac5c][NMeI][NMeD]-NMe2; lactam N-11) | ≤ 20 | 0.85
CC[C@H](C)[C@@H]1NC(=O)[C@H](CC(C)C)N(C)C(=O)C[C@@H](C)N(C)C(=O)[C@H]([C@@H](C)CC)N(C)C(=O)C2(CCCC2)NC(=O)[C@@H]2CCCN2C(=O)[C@H](CCc2ccc(C(F)(F)F)c(F)c2)NC(=O)CN(C)C(=O)[C@H](Cc2ccc(C)cc2)N(C)C(=O)[C@@H]2CCN2C(=O)[C@H](C)N(C)C1=O [Compound 404] (cyclo([Ac5c][NMeI][NMedβ3hAla][NMeL]I[NMeA][Aze][NMePhe(4-Me)][Sar][hPhe(3-F,4-CF3)]P)) | ≤ 20 | 4.8
CCCOC[C@H]1C(=O)N(C)CC(=O)N[C@@H](CCc2ccc(C(F)(F)F)c(Cl)c2)C(=O)N2CCC[C@H]2C(=O)NC2(CCCC2)C(=O)N(C)[C@@H](C2CCCC2)C(=O)N(C)[C@H](C(=O)N2CCCCC2)CC(=O)N(C)[C@@H](CC(C)C)C(=O)N[C@@H]([C@@H](C)CC)C(=O)N(C)[C@@H](C)C(=O)N2CC[C@H]2C(=O)N1C [Compound 415] ([NMeL]I[NMeA][Aze][NMeS](Propyl)[Sar][hPhe(3-Cl-4-CF3)]P[Ac5c][NMeGly(cPent)][NMeD]-Piperidide; lactam N-11) | ≤ 20 | 1.5
